Test results reported in US10000507B2, “Furo- and thieno-pyridine carboxamide compounds useful as pim kinase inhibitors” (Incyte Corporation, priority 2013, dated 2018).

Tests used:
Type in all cases: biochemical
[1] = biological target: Pim-3 (Homo sapiens (Human), UniProt Q86V86); experiment: Pim-3 kinase assay; conditions: 1 mM ATP, biotin-labeled BAD peptide substrate; read-out: Pim3 IC50
Description: (§1) Pim-1 and Pim-3 kinase assays-20 μL reactions were run in white 384 well polystyrene plates dotted with 0.8 μL compound/DMSO in the assay buffer (50 mM Tris, pH 7.5, 0.01% Tween-20, 5 mM MgCl2, 0.01% BSA, 5 mM DTT), containing […] Biotin-labeled BAD peptide substrate (AnaSpec 62269), 1 mM ATP, and 2.5 pM (Pim-1, Invitrogen PV3503) or 1.25 pM (Pim-3, Millipore 14-738) enzyme for 1 h at 25° C. Reactions were stopped by addition of 10 μL STOP Buffer (150 mM Tris, pH=7.5, 150 mM NaCl, 75 mM EDTA, 0.01% Tween-20, 0.3% BSA) supplemented with Phospho-Bad (Ser112) Antibody (Cell Signaling 9291) diluted 666-fold, and Streptavidin donor beads (PerkinElmer 6760002) along with Protein-A acceptor beads (PerkinElmer 6760137) at 15 μg/mL each. Supplementation of the STOP buffer with beads and stopping the reactions were done under reduced light. Prior to the stopping reactions STOP buffer with beads was pre-incubated for 1 h in the dark at room temperature. After stopping the reactions, plates were incubated for 1 h in the dark at room temperature before reading on a PHERAstar FS plate reader (BMG Labtech) under reduced light.

[2] = biological target: Pim-1 (Homo sapiens (Human), UniProt P11309); experiment: Pim-1 kinase assay; conditions: 1 mM ATP, biotin-labeled BAD peptide substrate; read-out: Pim1 IC50
Description: as §1

[3] = biological target: Pim-2 (Homo sapiens (Human), UniProt Q9P1W9); experiment: Pim-2 kinase assay; conditions: 1 mM ATP, fluorescein-labeled CREBtide peptide substrate; read-out: Pim2 IC50
Description: Pim-2 kinase assay-20 μL reactions were run in white 384 well polystyrene plates dotted with 0.8 μL compound/DMSO in the assay buffer (50 mM Tris, pH 7.5, 0.01% Tween-20, 5 mM MgCl2, 0.01% BSA, 5 mM DTT), containing 0.05 μm Fluorescein-labeled CREBtide peptide substrate (Invitrogen PV3508), 1 mM ATP, and 1 nM enzyme (Invitrogen PV3649) for 2 h at 25° C. Reactions were stopped by addition of 10 μL TR-FRET Dilution Buffer (Invitrogen PV3574) with 30 mM EDTA and 1.5 nM LanthaScreen Tb-CREB pSer133 antibody (Invitrogen PV3566). After 30 min. incubation at room temperature, plates were read on a PHERAstar FS plate reader (BMG Labtech).

Sequence of Pim-2 (Q9P1W9 whole entry): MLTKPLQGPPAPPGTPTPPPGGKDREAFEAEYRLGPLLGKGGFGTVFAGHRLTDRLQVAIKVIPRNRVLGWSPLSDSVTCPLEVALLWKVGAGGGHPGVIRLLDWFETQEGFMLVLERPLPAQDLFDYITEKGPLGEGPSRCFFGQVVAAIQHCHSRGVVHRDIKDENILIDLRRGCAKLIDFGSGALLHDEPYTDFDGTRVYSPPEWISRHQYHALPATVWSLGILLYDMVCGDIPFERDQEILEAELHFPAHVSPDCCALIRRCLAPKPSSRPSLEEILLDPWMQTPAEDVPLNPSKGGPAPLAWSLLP
Sequence of Pim-1 (P11309 whole entry): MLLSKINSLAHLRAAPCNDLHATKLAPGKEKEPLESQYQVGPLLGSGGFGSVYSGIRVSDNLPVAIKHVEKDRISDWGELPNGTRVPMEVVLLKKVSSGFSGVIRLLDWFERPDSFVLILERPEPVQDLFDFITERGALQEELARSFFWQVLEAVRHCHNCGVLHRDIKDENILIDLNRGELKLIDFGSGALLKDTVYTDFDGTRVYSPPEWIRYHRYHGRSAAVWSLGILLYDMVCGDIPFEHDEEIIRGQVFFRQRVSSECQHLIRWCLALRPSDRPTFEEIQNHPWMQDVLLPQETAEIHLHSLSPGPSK

| Structure (SMILES) | IC50 [1] [nM] | IC50 [2] [nM] | IC50 [3] [nM] |
| --- | --- | --- | --- |
| Cn1ncc(NC(=O)c2c(N)sc3cc(-c4c(F)cccc4F)cnc23)c1N1CCCC(N)CC1 (stereo not drawn) [Example 27, 2-Amino-N-[5-(4-aminoazepan-1-yl)-1-methyl-1H-pyrazol-4-yl]-6-(2,6-difluorophenyl)-thieno[3,2-b]pyridine-3-carboxamide] | ≤ 10 | ≤ 10 | 10 to 100 |
| Cc1noc(C)c1-c1cnc2c(C(=O)Nc3cnccc3N3CCC[C@H](N)C3)c(N)sc2c1 [Example 28, 2-Amino-N-{4-[(3S)-3-aminopiperidin-1-yl]pyridin-3-yl}-6-(3,5-dimethylisoxazol-4-yl)-thieno[3,2-b]pyridine-3-carboxamide] | > 40 | ≤ 10 | > 2000 |
| Cc1noc(C)c1-c1cnc2c(C(=O)Nc3cnn(C)c3N3CCCC(N)CC3)c(N)sc2c1 (stereo not drawn) [Example 29, 2-Amino-N-[5-(4-aminoazepan-1-yl)-1-methyl-1H-pyrazol-4-yl]-6-(3,5-dimethylisoxazol-4-yl)-thieno[3,2-b]pyridine-3-carboxamide] | ≤ 10 | ≤ 10 | 100 to 1000 |
| Cn1ncc(NC(=O)c2c(N)sc3cc(-c4nccs4)cnc23)c1N1CCCC(N)CC1 (stereo not drawn) [Example 30, 2-Amino-N-[5-(4-aminoazepan-1-yl)-1-methyl-1H-pyrazol-4-yl]-6-(1,3-thiazol-2-yl)-thieno[3,2-b]pyridine-3-carboxamide] | ≤ 10 | ≤ 10 | 10 to 100 |
| CN1CC(c2cnc3c(C(=O)Nc4cnccc4N4CCC[C@H](N)C4)c(N)sc3c2)C1 [Example 31, 2-Amino-N-{4-[(3S)-3-aminopiperidin-1-yl]pyridin-3-yl}-6-(1-methylazetidin-3-yl)thieno[3,2-b]pyridine-3-carboxamide] | ≤ 10 | ≤ 10 | 100 to 1000 |
| CN1CC(c2cnc3c(C(=O)Nc4cnn(C)c4N4CCCC(N)CC4)c(N)sc3c2)C1 (stereo not drawn) [Example 32, 2-Amino-N-[5-(4-aminoazepan-1-yl)-1-methyl-1H-pyrazol-4-yl]-6-(1-methylazetidin-3-yl)thieno[3,2-b]pyridine-3-carboxamide] | ≤ 10 | ≤ 10 | 100 to 1000 |
| CC(C)N1CC(c2cnc3c(C(=O)Nc4cnccc4N4CCC[C@H](N)C4)c(N)sc3c2)C1 [Example 33, 2-Amino-N-{4-[(3S)-3-aminopiperidin-1-yl]pyridin-3-yl}-6-(1-isopropylazetidin-3-yl)thieno[3,2-b]pyridine-3-carboxamide] | 10 to 100 | ≤ 10 | > 2000 |
| COCc1cnc2c(C(=O)Nc3cnccc3N3CCC[C@H](N)C3)c(N)sc2c1 [Example 34, 2-Amino-N-{4-[(3S)-3-aminopiperidin-1-yl]pyridin-3-yl}-6-(methoxymethyl)thieno[3,2-b]pyridine-3-carboxamide] | ≤ 10 | ≤ 10 | 100 to 1000 |
| Nc1sc2cc(C3CCOCC3)cnc2c1C(=O)Nc1cnccc1N1CCC[C@H](N)C1 [Example 35, 2-Amino-N-{4-[(3S)-3-aminopiperidin-1-yl]pyridin-3-yl}-6-(tetrahydro-2H-pyran-4-yl)thieno[3,2-b]pyridine-3-carboxamide] | ≤ 10 | ≤ 10 | 10 to 100 |
| Nc1sc2cc(F)cnc2c1C(=O)Nc1cnccc1N1CCC[C@H](N)C1 [Example 36, 2-Amino-N-{4-[(3S)-3-aminopiperidin-1-yl]pyridin-3-yl}-6-fluoro-thieno[3,2-b]pyridine-3-carboxamide] | ≤ 10 | ≤ 10 | 100 to 1000 |
| Cn1ncc(NC(=O)c2c(N)sc3cc(F)cnc23)c1N1CCCC(N)CC1 (stereo not drawn) [Example 37, 2-Amino-N-[5-(4-aminoazepan-1-yl)-1-methyl-1H-pyrazol-4-yl]-6-fluoro-thieno[3,2-b]pyridine-3-carboxamide] | ≤ 10 | ≤ 10 | 100 to 1000 |
| Nc1sc2c(C(F)(F)F)ccnc2c1C(=O)Nc1cnccc1N1CCC[C@H](N)C1 [Example 38, 2-Amino-N-{4-[(3S)-3-aminopiperidin-1-yl]pyridin-3-yl}-7-trifluoromethyl-thieno[3,2-b]pyridine-3-carboxamide] | ≤ 10 | ≤ 10 | 100 to 1000 |
| Cn1ncc(NC(=O)c2c(N)sc3ccc(Cl)nc23)c1N1CCCC(N)CC1 (stereo not drawn) [Example 39, 2-Amino-N-[5-(4-aminoazepan-1-yl)-1-methyl-1H-pyrazol-4-yl]-5-chlorothieno[3,2-b]pyridine-3-carboxamide] | ≤ 10 | ≤ 10 | 100 to 1000 |
| Cn1ncc(NC(=O)c2c(N)sc3ccc(Cl)nc23)c1N1CCC[C@H](N)C1 [Example 41, 2-Amino-N-{5-[(3S)-3-aminopiperidin-1-yl]-1-methyl-1H-pyrazol-4-yl}-5-chlorothieno[3,2-b]pyridine-3-carboxamide] | ≤ 10 | ≤ 10 | 100 to 1000 |
| Cc1ccc2sc(N)c(C(=O)Nc3cnn(C)c3N3CCCC(N)CC3)c2n1 (stereo not drawn) [Example 43, 2-Amino-N-[5-(4-aminoazepan-1-yl)-1-methyl-1H-pyrazol-4-yl]-5-methylthieno[3,2-b]pyridine-3-carboxamide] | 10 to 100 | ≤ 10 | > 1000 |
| Cn1ncc(NC(=O)c2c(N)sc3ccc(-c4ccccc4)nc23)c1N1CCCC(N)CC1 (stereo not drawn) [Example 44, 2-Amino-N-[5-(4-aminoazepan-1-yl)-1-methyl-1H-pyrazol-4-yl]-5-phenylthieno[3,2-b]pyridine-3-carboxamide] | ≤ 10 | ≤ 10 | > 2000 |
| Nc1oc2cccnc2c1C(=O)Nc1cnccc1N1CCC[C@H](N)C1 [Example 45, 2-Amino-N-{4-[(3S)-3-aminopiperidin-1-yl]pyridin-3-yl}furo[3,2-b]pyridine-3-carboxamide] | ≤ 10 | ≤ 10 | 100 to 1000 |
| Cn1ncc(NC(=O)c2c(N)oc3cccnc23)c1N1CCCC(N)CC1 (stereo not drawn) [Example 46, 2-Amino-N-[5-(4-aminoazepan-1-yl)-1-methyl-1H-pyrazol-4-yl]furo[3,2-b]pyridine-3-carboxamide] | 10 to 100 | ≤ 10 | > 2000 |
| CCc1cnc2c(C(=O)Nc3cnccc3N3CCC[C@H](N)C3)c(N)oc2c1 [Example 47, 2-Amino-N-{4-[(3S)-3-aminopiperidin-1-yl]pyridin-3-yl}-6-ethylfuro[3,2-b]pyridine-3-carboxamide] | ≤ 10 | ≤ 10 | 10 to 100 |
| Nc1oc2cc(C(F)(F)F)cnc2c1C(=O)Nc1cnccc1N1CCC[C@H](N)C1 [Example 48, 2-amino-N-{4-[(3S)-3-aminopiperidin-1-yl]pyridin-3-yl}-6-(trifluoromethyl)furo[3,2-b]pyridine-3-carboxamide] | ≤ 10 | ≤ 10 | 10 to 100 |
| Cc1cnc2c(C(=O)Nc3cnccc3N3CCC[C@H](N)C3)c(N)oc2c1 [Example 49, 2-amino-N-{4-[(3S)-3-aminopiperidin-1-yl]pyridin-3-yl}-6-methyl-furo[3,2-b]pyridine-3-carboxamide] | ≤ 10 | ≤ 10 | 10 to 100 |
| CC(C)c1cnc2c(C(=O)Nc3cnccc3N3CCC[C@H](N)C3)c(N)oc2c1 [Example 50, 2-amino-N-{4-[(3S)-3-aminopiperidin-1-yl]pyridin-3-yl}-6-(iso-propyl)furo[3,2-b]pyridine-3-carboxamide] | ≤ 10 | ≤ 10 | 10 to 100 |
| CCCc1cnc2c(C(=O)Nc3cnccc3N3CCC[C@H](N)C3)c(N)oc2c1 [Example 51, 2-amino-N-{4-[(3S)-3-aminopiperidin-1-yl]pyridin-3-yl}-6-(propyl)furo[3,2-b]pyridine-3-carboxamide] | ≤ 10 | ≤ 10 | 10 to 100 |
| Nc1oc2cc(F)cnc2c1C(=O)Nc1cnccc1N1CCC[C@H](N)C1 [Example 52, 2-amino-N-{4-[(3S)-3-aminopiperidin-1-yl]pyridin-3-yl}-6-fluoro-furo[3,2-b]pyridine-3-carboxamide] | ≤ 10 | ≤ 10 | 100 to 1000 |
| Nc1oc2cc(Cl)cnc2c1C(=O)Nc1cnccc1N1CCC[C@H](N)C1 [Example 53, 2-amino-N-{4-[(3S)-3-aminopiperidin-1-yl]pyridin-3-yl}-6-chloro-furo[3,2-b]pyridine-3-carboxamide] | ≤ 10 | ≤ 10 | 10 to 100 |
